Read-outs that look alike come from different tables or passages of the source.
Experiments:
[1] = molecular target: reverse transcriptase du HIV1 (Human immunodeficiency virus type 1 group M subtype B, UniProt P04585); test: Reverse transcriptase activity of HIV1 incubated with NP derivatives, tested immediately; type: biochemical; conditions: témoin virus 11924
Procedure: (§1) La technique de culture et de titrage de la reverse-transcriptase du HIV est rappelée ci-après : Des lymphocytes humains, préalablement activés par la PHA (phytohémagglutinine) sont incubés dans un milieu nutritif (RPMI 1640 + sérum de veau foetal + antibiotiques + β-mercaptoéthanol 10⁻⁵M + 2»g/ml polybrene + sérum anti-interféron 1/2000 + IL2 10%). Après centrifugation, le culot cellulaire est mis en présence du HIV1 (10.000 cpm/10⁶ cellules) pendant 1 heure à 37°. Après lavage et centrifugation, les cellules sont resuspendues dans du milieu nutritif. Les surnageants de culture cellulaire sont suivis pendant plusieurs jours pour leur activité reverse transcriptase. Ils sont centrifugés 7 minutes à 95000 tours et le culot est lysé par du Triton® 0,1% (produit Touzart et Matignon). Un mélange réactionnel est ajouté (Tris, DTT (dithiothreitol), MgCl₂, KCl, PolyA, Oligo dT, ³HTTP, H₂O) et après 1 heure d'incubation à 37°C, la réaction est arrêtée avec du pyrophosphate de sodium et de l'acide nucléique de levure est ajouté pour aider la précipitation. De l'acide trichloracétique (TCA) est ajouté et la solution est laissée 15 minutes à 4°C. Après filtration sous vide avec des filtres millipores 0.45 »m et plusieurs lavages avec du TCA (0.5%), on procède au rinçage à l'éthanol, au sèchage en étuve 37° et enfin au comptage.
Le HIV1 est incubé 1 heure à 37° en présence d'AcN (D23, 621, N5-12), d'anticorps anti-NP (TNP11) ou en présence des dérivés NP (DNP-glycine et DNP-lysine). L'activité reverse transcriptase du HIV1 est testée immédiatement (cas des dérivés DNP-glycine et DNP-lysine). Alternativement, des lymphocytes humains sont infectés par le HIV1 préincubé avec les produits à tester, et la culture cellulaire est observée pendant 3 semaines par titrage de la reverse transcriptase. Durant cette période les cultures des lymphocytes humains ne contiennent pas d'anticorps ni d'antigène.

HIV1 = HIV1 infection of human lymphocytes preincubated with antibodies or NP derivatives, reverse transcriptase in supernatants; type: cell-based; conditions: for activité reverse transcriptase (surnageants de culture): dérivés NP, concentration not given
Procedure: as §1
Les lymphocytes humains, préalablement activés par la PHA, sont incubés en présence des AcN, des anticorps anti-NP et des dérivés NP (DNP-glycine, DNP-lysine) pendant une nuit à 37°C. Le lendemain, le culot cellulaire est mis en présence du HIV1 pendant 1 heure à 37°C au bain-marie et les cellules sont resuspendues dans du milieu nutritif en présence des produits à tester. Les surnageants de culture sont testés pour l'activité reverse transcriptase pendant 3 semaines.

[2] = test system: IHDT-6 (International Health Division-Tumor-6); type: cell-based

Row | Compound | Activité reverse transcriptase ([1]; 10^-3M) | Activité reverse transcriptase ([1]; 10^-6M) | Activité reverse transcriptase ([1]; 10^-7M) | Activité reverse transcriptase ([1]; 10^-9M) | activité reverse transcriptase (surnageants de culture) (HIV1; 3 jours après l'infection, témoin virus 562) | activité reverse transcriptase (surnageants de culture) (HIV1; 6 jours après l'infection, témoin virus 1274) | activité reverse transcriptase (surnageants de culture) (HIV1; 10 jours après l'infection, témoin virus 94474) | activité reverse transcriptase (surnageants de culture) (HIV1; 13 jours après l'infection, témoin virus 63944) | activité reverse transcriptase (surnageants de culture) (HIV1; 18 jours après l'infection, témoin virus 73368) | activité reverse transcriptase (surnageants de culture) (HIV1; 20 jours après l'infection, témoin virus 26840) | activité reverse transcriptase / infectivité virale par rapport au témoin virus (result in words) (HIV1; lymphocytes incubés avec les produits) | % Inhibition ([2]; 0,3 mg/ml) | % Inhibition ([2]; 0,6 mg/ml) | % Inhibition ([2]; 0,07 mg/ml) | % Inhibition ([2]; 0,15 mg/ml) | % Inhibition ([2]; 1,2 mg/ml) | % Inhibition ([2]; 2,4 mg/ml)
1 | O=C(O)CNc1ccc([N+](=O)[O-])cc1[N+](=O)[O-] [DNP-glycine, DNP-Glycine] | 5444 | 3424 | 4090 | 3638 | 1064 | 890 | 1234 | 1572 | 1276 | 1270 | peuvent conduire à une inhibition totale de l'infectivité virale | – | – | – | – | – | –
2 | TNP-BSA | – | – | – | – | – | – | – | – | – | – | – | 37% | 51% | 21% | 31% | 73% | 72%

Reference: patent publication EP0316212B1 (priority 1987, dated 1989)
